From patent US9173402B2, “Fungicidal alkyl-substituted 2[2-chloro-4-(4-chioro-phenoxy)-phenyl]-1[1,2,4]triazol-1-yl-ethanol compounds” (BASF SE, priority 2011, dated 2015)
Values joined by “and” are separate entries in the source; they are usually repeats but may differ in a detail not shown here. Equal entries are not always repeated. Where two headings read alike, the source gives them in different places.

What was measured:
Pyricularia oryzae [1] = assay type: cell-based; conditions: 7 days after inoculation
Pyrenophora teres = experiment: Activity against net blotch on barley in the microtiter test; assay type: cell-based; conditions: comparative microtest Example 1, 7 days after inoculation
Procedure: The stock solutions were mixed according to the ratio, pipetted onto a micro titer plate (MTP) and diluted with water to the stated concentrations. A spore suspension of Pyrenophora teres in an aqueous biomalt or yeast-bactopeptone-glycerine solution was then added. The plates were placed in a water vapor-saturated chamber at a temperature of 18° C. Using an absorption photometer, the MTPs were measured at 405 nm 7 days after the inoculation.

Alternaria solani = experiment: Activity against early blight, microtiter test; assay type: cell-based; conditions: 7 days after inoculation; for Growth (%) at 0.000125 pm: comparative microtest Example 5; for Growth (%) at 0.5 pm: comparative microtest Example 2
Septoria tritici [2] = experiment: Preventative control of leaf blotch on wheat (comparative green house test); assay type: in vivo; conditions: % diseased leaf area after 4 weeks, untreated control 90
Procedure: (§1) The spray solutions were prepared in several steps: The stock solution were prepared: a mixture of acetone and/or dimethylsulfoxide and the wetting agent/emulsifier Wettol, which is based on ethoxylated alkylphenoles, in a relation (volume) solvent-emulsifier of 99 to 1 was added to 25 mg of the compound to give a total of 5 ml. Water was then added to total volume of 100 ml. This stock solution was diluted with the described solvent-emulsifier-water mixture to the given concentration. Leaves of pot-grown wheat seedling were sprayed to run-off with an aqueous suspension of the active compound or their mixture, prepared as described. The plants were allowed to air-dry. At the following day the plants were inoculated with an aqueous spore suspension of Septoria tritici. […] After 4 days the plants were transferred to a chamber with 18-22° C. and a relative humidity close to 70%. After 4 weeks the extent of fungal attack on the leaves was visually assessed as % diseased leaf area.

Botrytis cinerea = experiment: Activity against grey mold in the microtiterplate test; assay type: cell-based; conditions: 7 days after inoculation; for Growth (%) at 0.5 pm: comparative microtest Example 3
Septoria tritici [3] = experiment: Activity against leaf blotch on wheat, microtiter test; assay type: cell-based; conditions: 32 ppm; 405 nm, 7 days after inoculation; compound-free control = 100%
Phytophthora infestans = assay type: cell-based; conditions: 32 ppm; 405 nm, 7 days after inoculation; compound-free control = 100%
Leptosphaeria nodorum = experiment: Activity against wheat leaf spots, microtiter test; assay type: cell-based; conditions: 32 ppm; 405 nm, 7 days after inoculation; compound-free control = 100%
Fusarium culmorum = experiment: Control of culm rot on pearl millet (comparative green house test); assay type: in vivo; conditions: pearl millet sprayed one day before inoculation, % diseased leaf area after 6 days
Procedure: The spray solutions were prepared in several steps:
The stock solution were prepared: a mixture of acetone and/or dimethylsulfoxide and the wetting agent/emulsifier Wettol, which is based on ethoxylated alkylphenoles, in a relation (volume) solvent-emulsifier of 99 to 1 was added to 25 mg of the compound to give a total of 5 ml.
Water was then added to total volume of 100 ml.
This stock solution was diluted with the described solvent-emulsifier-water mixture to the given concentration.
Pot-grown pearl millet seedlings with 2-3 leaves were sprayed to run-off with an aqueous suspension of the compound prepared as described. The plants were allowed to air-dry. At the following day the plants were inoculated with an spore suspension of Fusarium culmorum in a 2% aqueous malt solution. Then the trial plants were immediately transferred to a humid chamber. After 6 days at 23-25° C. and a relative humidity close to 100% the extent of fungal attack on the leaves was visually assessed as % diseased leaf area.

Septoria tritici [4] = experiment: Curative control of leaf blotch on wheat (comparative green house test); assay type: in vivo; conditions: wheat sprayed seven days after inoculation, % diseased leaf area after 4 weeks, untreated control 90
Procedure: as §1, with “were” for “were sprayed to run-off with an aqueous suspension of the active compound or their mixture, prepared as described. The plants were allowed to air-dry. At the following day the plants were”, “70%. Seven days after inoculation the plants were sprayed to run-off with an aqueous suspension of the active compound or their mixture, prepared as described. Then the plants were transferred back to the chamber with 18-22° C. and a relative humidity close to 70%.” for “70%.”

Pyricularia oryzae [5] = assay type: in vivo; conditions: rice sprayed seven days before inoculation, % diseased leaf area after 6 days, untreated control 90
[6] = comparative microtest Example 4
[7] = comparative microtest Example 7
[8] = 32 ppm, 405 nm, compound-free control = 100%

**Q.** Which “Growth (%) at 0.5 pm” value (Pyricularia oryzae [1]; [6]) does the source give for `CCCC(Cn1cncn1)(OC)c1ccc(Oc2ccc(Cl)cc2)cc1Cl` (stereo not shown) [drawing 15, reference compound] here?
**A.** Its value is 30%.

**Q.** Which “Growth (%) at 8 pm” value (Pyrenophora teres) does the source give for `CC(O)(Cn1cncn1)c1ccc(Oc2ccc(Cl)cc2)cc1Cl` (stereo not shown) [drawing 6] here?
**A.** Its value is 62%.

**Q.** With `CCC(Cn1cncn1)(OC)c1ccc(Oc2ccc(Cl)cc2)cc1Cl` (stereo not shown) [drawing 22, reference compound] as the compound, how does the “Growth (%) at 0.5 pm” value (Pyricularia oryzae [1]; [7]) read?
**A.** The value was 47%.

**Q.** With `CCC(Cn1cncn1)(OC)c1ccc(Oc2ccc(Cl)cc2)cc1Cl` (stereo not shown) [drawing 18, reference compound] as the compound, how does the “Growth (%) at 0.000125 pm” value (Alternaria solani) read?
**A.** The value was 83%.

**Q.** Which “Disease (%) at 150 ppm” value (Septoria tritici [2]) does the source give for `OC(Cn1cncn1)c1ccc(Oc2ccc(Cl)cc2)cc1Cl` (stereo not shown) [drawing 24] here?
**A.** Its value is 60%.

**Q.** For `OC(/C=C/c1ccccc1)(Cn1cncn1)c1ccc(Oc2ccc(Cl)cc2)cc1Cl` (stereo not shown) [drawing 13, reference compound], which “Growth (%) at 0.5 pm” value (Botrytis cinerea) is on record?
**A.** Its value is 77%.

**Q.** For `CC(O)(Cn1cncn1)c1ccc(Oc2ccc(Cl)cc2)cc1Cl` (stereo not shown) [drawing 17, reference compound], which “Growth (%) at 0.000125 pm” value (Alternaria solani) is on record?
**A.** Its value is 45%.

**Q.** Which results are given for `C#CCC(O)(Cn1cncn1)c1ccc(Oc2ccc(Cl)cc2)cc1Cl` (stereo not shown) [Compound I-11, 2-[2-chloro-4-(4-chloro-phenoxy)-phenyl]-1-[1,2,4]triazol-1-yl-pent-4-yn-2-ol]?
**A.** relative growth of the pathogen (Pyricularia oryzae [1]; [8]): 0%; relative growth of the pathogen (Septoria tritici [3]): 9%; relative growth of the pathogen (Phytophthora infestans): 12%; relative growth of the pathogen (Leptosphaeria nodorum): 2%; relative growth of the pathogen (Botrytis cinerea; [8]): 0%; relative growth of the pathogen (Alternaria solani; [8]): 2%

**Q.** For `CC(O)(Cn1cncn1)c1ccc(Oc2ccc(Cl)cc2)cc1Cl` (stereo not shown) [drawing 21, reference compound], which “Growth (%) at 0.5 pm” value (Pyricularia oryzae [1]; [7]) is on record?
**A.** Its value is 82%.

**Q.** Which results are given for `CCC(O)(Cn1cncn1)c1ccc(Oc2ccc(Cl)cc2)cc1Cl` (stereo not shown) [Compound I-1, 2-[2-chloro-4-(4-chlorophenoxy)phenyl]-1-(1,2,4-triazol-1-yl)butan-2-ol]?
**A.** Disease (%) at 16 ppm (Fusarium culmorum; untreated control 90, listed as Table 1, 1): 0% and 1%; Growth (%) at 0.5 pm (Pyricularia oryzae [1]; [7]): 15%; melting point: 140 to 142 °C; Growth (%) at 8 pm (Pyrenophora teres): 13%; Disease (%) at 16 ppm (Septoria tritici [4]): 40%; Disease (%) at 250 ppm (Pyricularia oryzae [5]): 20%; Growth (%) at 0.000125 pm (Alternaria solani): 1%; Disease (%) at 150 ppm (Septoria tritici [2]): 10%

**Q.** With `CC(F)C(O)(Cn1cncn1)c1ccc(Oc2ccc(Cl)cc2)cc1Cl` (stereo not shown) as the compound, how does the “Disease (%) at 150 ppm” value (Septoria tritici [2]) read?
**A.** The value was 50%.

**Q.** Which melting point does the source give for `CC#CC(O)(Cn1cncn1)c1ccc(Oc2ccc(Cl)cc2)cc1Cl` (stereo not shown) [Compound I-8, 2-[2-chloro-4-(4-chlorophenoxy)phenyl]-1-(1,2,4-triazol-1-yl)pent-3-yn-2-ol] here?
**A.** The melting point was 139 °C.

**Q.** With `C=CC(O)(Cn1cncn1)c1ccc(Oc2ccc(Cl)cc2)cc1Cl` (stereo not shown) [Compound I-10] as the compound, how does the melting point read?
**A.** Its melting point is 119 °C.

**Q.** What about the “Growth (%) at 0.5 pm” value (Botrytis cinerea) of the same compound?
**A.** Its value is 0%.

**Q.** What about the “Growth (%) at 0.5 pm” value (Alternaria solani) of the same compound?
**A.** Its value is 0%.

**Q.** For `CCCC(O)(Cn1cncn1)c1ccc(Oc2ccc(Cl)cc2)cc1Cl` (stereo not shown) [Compound I-2, 2-[2-chloro-4-(4-chloro-phenoxy)-phenyl]-1-[1,2,4]triazol-1-yl-pentan-2-ol], which “Growth (%) at 0.5 pm” value (Pyricularia oryzae [1]; [6]) is on record?
**A.** Its value is 4%.

**Q.** And the melting point?
**A.** Its melting point is 132 to 135 °C.

**Q.** What about the “Growth (%) at 8 pm” value (Pyrenophora teres) of the same compound?
**A.** The value was 57%.

**Q.** With `CC(O)(Cn1cncn1)c1ccc(Oc2ccc(Cl)cc2)cc1Cl` (stereo not shown) [drawing 29, reference compound] as the compound, how does the “Disease (%) at 16 ppm” value (Fusarium culmorum; untreated control 90) read?
**A.** Its value is 25%.

**Q.** For `OC(Cn1cncn1)(c1ccc(Oc2ccc(Cl)cc2)cc1Cl)C1CC1` (stereo not shown) [Compound I-9], which “Disease (%) at 16 ppm” value (Fusarium culmorum; untreated control 90) is on record?
**A.** Its value is 5%.

**Q.** What about the melting point of the same compound?
**A.** Its melting point is 110 °C.

**Q.** What about the “Growth (%) at 0.000125 pm” value (Alternaria solani) of the same compound?
**A.** The value was 1%.

**Q.** For `CCC(Cn1cncn1)(OC)c1ccc(Oc2ccc(Cl)cc2)cc1Cl` (stereo not shown) [drawing 34, reference compound], which “Disease (%) at 16 ppm” value (Septoria tritici [4]) is on record?
**A.** Its value is 70%.

**Q.** For `CCCC(Cn1cncn1)(OC)c1ccc(Oc2ccc(Cl)cc2)cc1Cl` (stereo not shown) [drawing 9], which “Growth (%) at 8 pm” value (Pyrenophora teres) is on record?
**A.** Its value is 77%.

**Q.** With `CCC(Cn1cncn1)(OC)c1ccc(Oc2ccc(Cl)cc2)cc1Cl` (stereo not shown) [drawing 7] as the compound, how does the “Growth (%) at 8 pm” value (Pyrenophora teres) read?
**A.** Its value is 39%.

**Q.** With `OC(Cn1cncn1)c1ccc(Oc2ccc(Cl)cc2)cc1Cl` (stereo not shown) [drawing 27, reference compound] as the compound, how does the “Disease (%) at 250 ppm” value (Pyricularia oryzae [5]) read?
**A.** Its value is 60%.

**Q.** Which “Growth (%) at 0.5 pm” value (Alternaria solani) does the source give for `OC(/C=C/c1ccccc1)(Cn1cncn1)c1ccc(Oc2ccc(Cl)cc2)cc1Cl` (stereo not shown) [drawing 11, reference compound] here?
**A.** The value was 91%.

**Q.** For `OC(Cn1cncn1)c1ccc(Oc2ccc(Cl)cc2)cc1Cl` (stereo not shown) [drawing 32, reference compound], which “Disease (%) at 16 ppm” value (Fusarium culmorum; untreated control 90) is on record?
**A.** Its value is 30%.
